Structures are written as SMILES.

This is an account of results in US20020082420A1, “Bicyclic heterocycles, pharmaceutical compositions containing them, their use, and processes for preparing them” (priority 2000, published 2002).

In series [1] the target is T1, human EGF-R (Homo sapiens, UniProt P00533).
T1 construct: expressed in transfected cells; host or cells: F/L-HERc cells (murine IL-3-dependent FDC-P1 line transduced with an LXSN retroviral vector carrying human EGF-R cDNA; packaging line GP+E86)
The experiment in a line: Inhibition of EGF-dependent proliferation of F/L-HERc cells (Cell Titer 96 assay). The format is cell-based. Particulars: F/L-HERc cells (murine IL-3-dependent line expressing human EGF-R), stimulated with EGF 20 ng/ml, 48 hours at 37° C. An excerpt: A cell line of murine origin dependent on interleukin-3-(IL-3) which was genetically modified to express functional human EGF-R was used here. The proliferation of these cells known as F/L-HERc can therefore be stimulated either by murine IL-3 or by EGF (cf T. von Ruiden et al., EMBO J. 7, 2749-2756 (1988) and J. H. Pierce et al., Science 239, 628-631 (1988)).
The starting material used for the F/L-HERc cells was the cell line FDC-P1, the production of which has been described by T. M. Dexter et al., J. Exp. Med. 152. 1036-1047 (1980). Alternatively, however, other growth-factor-dependent cells may also be used (cf., e.g., J.H. Pierce et al., Science 239, 628-631 (1988); H. Shibuya et al., Cell 70, 57-67 (1992); and W. S. Alexander et al., EMBO J. 10, 3683-3691 (1991)). For expressing the human EGF-R cDNA (cf A. Ullrich et al., Nature 309, 418-425 (1984)) recombinant retroviruses were used as described by T. von Ruiden et al., EMBO J. 7, 2749-2756 (1988), except that the retroviral vector LXSN (cf A. D. Miller et al., BioTechniques 7, 980-990 (1989)) was used for the expression of the EGF-R cDNA and the line GP+E86 (cf D. Markowitz et al., J. Virol. 62, 1120-1124 (1988)) was used as the packaging cell.
The test was performed as follows:
F/L-HERc cells were cultivated in RPMI/1640 medium (BioWhittaker), supplemented with 10% fetal calf serum (FCS, Boehringer Mannheim), 2 mM glutamine (BioWhittaker), standard antibiotics and 20 ng/ml of human EGF (Promega), at 37° C. and 5% CO2. In order to investigate the inhibitory activity of the compounds according to the invention, 1.5×10^4 cells per well were cultivated in triplicate in 96-well plates in the above medium (200 μl), the cell proliferation being stimulated with either EGF (20 ng/ml) or murine IL-3. The IL-3 used was obtained from culture supernatants of the cell line X63/0 mIL-3 (cf H. Karasuyama et al., Eur. J. Immunol. 18, 97-104 (1988)). The compounds according to the invention were dissolved in 100% dimethylsulfoxide (DMSO) and added to the cultures in various dilutions, the maximum DMSO concentration being 1%. The cultures were incubated for 48 hours at 37° C.
In order to determine the inhibitory activity of the compounds according to the invention the relative cell number was measured in O.D. units using the Cell Titer 96™ Aqueous Non-Radioactive Cell Proliferation Assay (Promega). The relative cell number was calculated as a percentage of the control (F/LHERc cells without inhibitor) and the concentration of active substance which inhibits the proliferation of the cells by 50% (IC50) was derived therefrom.

T1 sequence (P00533 25-1210): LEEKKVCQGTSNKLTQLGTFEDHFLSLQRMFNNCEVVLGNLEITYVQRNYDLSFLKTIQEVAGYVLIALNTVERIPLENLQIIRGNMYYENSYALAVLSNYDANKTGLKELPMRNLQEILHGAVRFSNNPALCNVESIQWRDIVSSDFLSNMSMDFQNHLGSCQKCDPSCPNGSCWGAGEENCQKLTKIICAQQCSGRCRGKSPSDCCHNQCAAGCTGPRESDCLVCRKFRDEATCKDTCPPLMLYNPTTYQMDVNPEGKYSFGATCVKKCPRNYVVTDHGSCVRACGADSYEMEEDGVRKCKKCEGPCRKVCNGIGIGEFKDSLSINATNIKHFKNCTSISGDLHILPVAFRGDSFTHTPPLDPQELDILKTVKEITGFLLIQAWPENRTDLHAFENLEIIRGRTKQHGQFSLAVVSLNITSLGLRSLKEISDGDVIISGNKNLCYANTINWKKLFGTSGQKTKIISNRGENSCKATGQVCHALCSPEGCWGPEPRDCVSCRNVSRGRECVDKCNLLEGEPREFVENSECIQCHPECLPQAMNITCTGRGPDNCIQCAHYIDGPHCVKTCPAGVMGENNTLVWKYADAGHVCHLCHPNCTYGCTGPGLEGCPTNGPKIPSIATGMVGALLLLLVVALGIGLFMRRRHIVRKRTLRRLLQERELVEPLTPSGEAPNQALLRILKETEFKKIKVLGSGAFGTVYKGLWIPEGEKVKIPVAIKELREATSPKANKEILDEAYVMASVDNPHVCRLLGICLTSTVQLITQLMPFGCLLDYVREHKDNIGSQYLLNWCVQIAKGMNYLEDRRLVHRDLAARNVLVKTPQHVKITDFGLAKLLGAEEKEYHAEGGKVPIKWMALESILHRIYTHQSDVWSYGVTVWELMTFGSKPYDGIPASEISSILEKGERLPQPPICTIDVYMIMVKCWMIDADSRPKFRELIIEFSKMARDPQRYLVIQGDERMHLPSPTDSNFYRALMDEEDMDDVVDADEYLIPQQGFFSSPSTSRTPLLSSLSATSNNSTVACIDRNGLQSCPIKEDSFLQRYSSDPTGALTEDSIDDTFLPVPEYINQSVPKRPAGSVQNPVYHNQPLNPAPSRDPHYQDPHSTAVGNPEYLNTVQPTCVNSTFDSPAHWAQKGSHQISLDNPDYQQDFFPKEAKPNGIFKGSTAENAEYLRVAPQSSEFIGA

By IC50 is commonly meant the concentration that gives 50% inhibition. The low end stands for higher potency, the high end for lower potency. One may read the melting point as the temperature of the solid-liquid transition. In turn, `COC(=O)CN1CCC(Nc2ncc3ncnc(Nc4cc(Br)c(N)c(Br)c4)c3n2)CC1` [2(27), 4-[(4-amino-3,5-dibromophenyl)amino]-6-({1-[(methoxycarbonyl)methyl]piperidin-4-yl}amino)pyrimido[5,4-d]pyrimidine] displayed a melting point of 167 °C. The same compound showed an IC50 in series [1] of 77 nM.

`COC(=O)CN1CCC(Nc2ncc3ncnc(Nc4ccc5[nH]ccc5c4)c3n2)CC1` [2(28), 4-[(indol-5-yl)amino]-6-({1-[(methoxycarbonyl)methyl]piperidin-4-yl}amino)pyrimido [5,4-d]pyrimidine] showed a melting point of 167 °C. The compound further displayed an IC50 in series [1] of 26 nM.

Regarding `COC(=O)CN(CC(=O)OC)C1CCC(N(C)c2ncc3ncnc(Nc4ccc(F)c(Cl)c4)c3n2)CC1` (stereo not drawn) [3(12), 4-[(3-chloro-4-fluorophenyl)amino]-6-[N-(trans-4-{N,N′-bis[(methoxycarbonyl)methyl]amino}cyclohex-1-yl)-N-methylamino]pyrimido[5,4-d]pyrimidine], the melting point lay within 162 to 164 °C. Further, half-maximal inhibition in series [1] (IC50) was put at 103 nM.

For `O=C(O)CN1CCN(c2ncc3ncnc(Nc4ccc(F)c(Cl)c4)c3n2)CC1` [Example 1(6), 4-[(3-chloro-4-fluorophenyl)amino]-6-[4-(carboxymethyl)piperazin-1-yl]pyrimido[5,4-d]pyrimidine], the melting point was 240 °C (dec.). This compound showed an IC50 in series [1] of 2300 nM.

`O=C(O)CN1CCC(Nc2ncc3ncnc(Nc4ccc(F)c(Cl)c4)c3n2)CC1` [Example 1, 4-[(3-chloro-4-fluorophenyl)amino]-6-{ [1-(carboxymethyl)piperidin-4-yl]amino}pyrimido[5.4-d]pyrimidine] had a melting point of 202 to 205 °C. The same compound came in with an IC50 in series [1] of 840 nM.

Turning to `O=C1CN(C2CCC(Nc3ncc4ncnc(Nc5ccc(F)c(Cl)c5)c4n3)CC2)CCO1` (stereo not drawn) [Example 7, 4-[(3-chloro-4-fluorophenyl)amino]-6-{[trans-4-(2-oxomorpholin-4-yl)cvclohex-1-yl]amino}pyrimido[5,4-d]pyrimidine], the melting point is 202 to 204 °C. This compound also came in with an IC50 in series [1] of 122 nM.
